# Measured values reported in PubChem BioAssay AID2060884 (Molecular Pharmacology Branch, DTP, NCI, 2025).
# Tested on: NCI-H929 complex spheroids, viability % test/control
# Assay: Anticancer human tumor NCI-H929 cell line growth inhibition [RAS];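 also: compound exposure lasted seven days before viability was read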;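 as to viability, T/C: 100% = DMSO vehicle control viability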
# Conditions: for viability, T/C: stronger effect = lower value
# Procedure, shortened: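 Tumour cells grown as complex spheroids with HUVEC endothelial cells and mesenchymal stem cells, treated with RAS pathway inhibitor combinations. Each agent spans half-log steps from near clinical Cmax, or 10 microM where Cmax is unknown.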
smiles,measurement,setting,value
CCc1c2c(nc3ccc(O)cc13)-c1cc3c(c(=O)n1C2)COC(=O)[C@]3(O)CC + C=CC(=O)N1CCN(c2nc(OCC3CCCN3C)nc3c(F)c(-c4nc(N)cc(C)c4C(F)(F)F)c(Cl)cc23)C(C)C1,IC50,"curve of first compound, second compound 0.00316 µM",1.85 nM
same,IC50,"curve of first compound, second compound 0.01 µM",1.94 nM
same,IC50,"curve of first compound, second compound 0.0316 µM",1.99 nM
same,IC50,"curve of first compound, second compound 0.1 µM",1.99 nM
same,IC50,"curve of first compound, second compound 0.316 µM",2.03 nM
same,IC50,"curve of first compound, second compound 1 µM",1.94 nM
same,"viability, T/C","second compound 0.00316 µM, first compound 0.000949 µM",106%
same,"viability, T/C","second compound 0.00316 µM, first compound 0.003 µM",9.93%
same,"viability, T/C","second compound 0.00316 µM, first compound 0.00949 µM",1.39%
same,"viability, T/C","second compound 0.00316 µM, first compound 0.03 µM",1.87%
same,"viability, T/C","second compound 0.00316 µM, first compound 0.0949 µM",2.37%
same,"viability, T/C","second compound 0.00316 µM, first compound 0.3 µM",1.53%
same,"viability, T/C","second compound 0.01 µM, first compound 0.000949 µM",101%
same,"viability, T/C","second compound 0.01 µM, first compound 0.003 µM",18.9%
same,"viability, T/C","second compound 0.01 µM, first compound 0.00949 µM",2.06%
same,"viability, T/C","second compound 0.01 µM, first compound 0.03 µM",3.03%
same,"viability, T/C","second compound 0.01 µM, first compound 0.0949 µM",2.18%
same,"viability, T/C","second compound 0.01 µM, first compound 0.3 µM",1.15%
same,"viability, T/C","second compound 0.0316 µM, first compound 0.000949 µM",103%
same,"viability, T/C","second compound 0.0316 µM, first compound 0.003 µM",20.9%
same,"viability, T/C","second compound 0.0316 µM, first compound 0.00949 µM",1.84%
same,"viability, T/C","second compound 0.0316 µM, first compound 0.03 µM",2.69%
same,"viability, T/C","second compound 0.0316 µM, first compound 0.0949 µM",2.18%
same,"viability, T/C","second compound 0.0316 µM, first compound 0.3 µM",0.6%
same,"viability, T/C","second compound 0.1 µM, first compound 0.000949 µM",104%
same,"viability, T/C","second compound 0.1 µM, first compound 0.003 µM",19.8%
same,"viability, T/C","second compound 0.1 µM, first compound 0.00949 µM",1.52%
same,"viability, T/C","second compound 0.1 µM, first compound 0.03 µM",1.4%
same,"viability, T/C","second compound 0.1 µM, first compound 0.0949 µM",1.53%
same,"viability, T/C","second compound 0.1 µM, first compound 0.3 µM",0.65%
same,"viability, T/C","second compound 0.316 µM, first compound 0.000949 µM",107%
same,"viability, T/C","second compound 0.316 µM, first compound 0.003 µM",20.4%
same,"viability, T/C","second compound 0.316 µM, first compound 0.00949 µM",1.92%
same,"viability, T/C","second compound 0.316 µM, first compound 0.03 µM",2.44%
same,"viability, T/C","second compound 0.316 µM, first compound 0.0949 µM",1.37%
same,"viability, T/C","second compound 0.316 µM, first compound 0.3 µM",0.74%
same,"viability, T/C","second compound 1 µM, first compound 0.000949 µM",116%
same,"viability, T/C","second compound 1 µM, first compound 0.003 µM",9.86%
same,"viability, T/C","second compound 1 µM, first compound 0.00949 µM",2.04%
same,"viability, T/C","second compound 1 µM, first compound 0.03 µM",2.87%
same,"viability, T/C","second compound 1 µM, first compound 0.0949 µM",1.52%
same,"viability, T/C","second compound 1 µM, first compound 0.3 µM",0.6%
NC1c2ccccc2OC12CCN(c1cnc3c(N4CCCc5ncccc54)n[nH]c3n1)CC2 (stereo unspecified) + CCn1c(-c2cc(N3CCN(C)CC3)cnc2C(C)OC)c2c3cc(ccc31)-c1csc(n1)CC(NC(=O)C1CC1C)C(=O)N1CCCC(N1)C(=O)OCC(C)(C)C2,IC50,"curve of first compound, second compound 0.000949 µM",> 10000 nM
same,IC50,"curve of first compound, second compound 0.003 µM",> 10000 nM
same,IC50,"curve of first compound, second compound 0.00949 µM",> 10000 nM
same,IC50,"curve of first compound, second compound 0.03 µM",< 31.6 nM
same,IC50,"curve of first compound, second compound 0.0949 µM",< 31.6 nM
same,IC50,"curve of first compound, second compound 0.3 µM",< 31.6 nM
same,"viability, T/C","second compound 0.000949 µM, first compound 0.0316 µM",107%
same,"viability, T/C","second compound 0.000949 µM, first compound 0.1 µM",104%
same,"viability, T/C","second compound 0.000949 µM, first compound 0.316 µM",108%
same,"viability, T/C","second compound 0.000949 µM, first compound 1 µM",108%
same,"viability, T/C","second compound 0.000949 µM, first compound 3.16 µM",113%
same,"viability, T/C","second compound 0.000949 µM, first compound 10 µM",78.6%
same,"viability, T/C","second compound 0.003 µM, first compound 0.0316 µM",107%
same,"viability, T/C","second compound 0.003 µM, first compound 0.1 µM",108%
same,"viability, T/C","second compound 0.003 µM, first compound 0.316 µM",109%
same,"viability, T/C","second compound 0.003 µM, first compound 1 µM",111%
same,"viability, T/C","second compound 0.003 µM, first compound 3.16 µM",109%
same,"viability, T/C","second compound 0.003 µM, first compound 10 µM",80.9%
same,"viability, T/C","second compound 0.00949 µM, first compound 0.0316 µM",121%
same,"viability, T/C","second compound 0.00949 µM, first compound 0.1 µM",128%
same,"viability, T/C","second compound 0.00949 µM, first compound 0.316 µM",128%
same,"viability, T/C","second compound 0.00949 µM, first compound 1 µM",125%
same,"viability, T/C","second compound 0.00949 µM, first compound 3.16 µM",121%
same,"viability, T/C","second compound 0.00949 µM, first compound 10 µM",87.8%
same,"viability, T/C","second compound 0.03 µM, first compound 0.0316 µM",15.4%
same,"viability, T/C","second compound 0.03 µM, first compound 0.1 µM",13.8%
same,"viability, T/C","second compound 0.03 µM, first compound 0.316 µM",14.9%
same,"viability, T/C","second compound 0.03 µM, first compound 1 µM",12.7%
same,"viability, T/C","second compound 0.03 µM, first compound 3.16 µM",18.3%
same,"viability, T/C","second compound 0.03 µM, first compound 10 µM",12%
same,"viability, T/C","second compound 0.0949 µM, first compound 0.0316 µM",3.25%
same,"viability, T/C","second compound 0.0949 µM, first compound 0.1 µM",2.4%
same,"viability, T/C","second compound 0.0949 µM, first compound 0.316 µM",2.09%
same,"viability, T/C","second compound 0.0949 µM, first compound 1 µM",2.07%
same,"viability, T/C","second compound 0.0949 µM, first compound 3.16 µM",1.88%
same,"viability, T/C","second compound 0.0949 µM, first compound 10 µM",0.76%
same,"viability, T/C","second compound 0.3 µM, first compound 0.0316 µM",1.75%
same,"viability, T/C","second compound 0.3 µM, first compound 0.1 µM",1.24%
same,"viability, T/C","second compound 0.3 µM, first compound 0.316 µM",0.73%
same,"viability, T/C","second compound 0.3 µM, first compound 1 µM",0.89%
same,"viability, T/C","second compound 0.3 µM, first compound 3.16 µM",1.51%
same,"viability, T/C","second compound 0.3 µM, first compound 10 µM",0.19%
NC1c2ccccc2OC12CCN(c1cnc3c(N4CCCc5ncccc54)n[nH]c3n1)CC2 (stereo unspecified),"viability, T/C",compound 0.0316 µM,104% [middle of 4 runs]
same,"viability, T/C",compound 0.1 µM,99.1% [middle of 4 runs]
same,"viability, T/C",compound 0.316 µM,104% [middle of 4 runs]
same,"viability, T/C",compound 1 µM,102% [middle of 4 runs]
same,"viability, T/C",compound 3.16 µM,101% [middle of 4 runs]
same,"viability, T/C",compound 10 µM,69.9% [middle of 4 runs]
same,IC50,curve of compound,> 10000 nM
